Results as given in ChEMBL document CHEMBL4265931, “Identification of dual Sigma1 receptor modulators/acetylcholinesterase inhibitors with antioxidant and neurotrophic properties, as neuroprotective agents” (Eur J Med Chem, 2018).
Calls of active or inactive are those of the source. The calls are words filed in the database; no cut-off is given here.

Key:
[1] = Antioxidant activity assessed as DPPH free radical scavenging at 465 uM after 20 mins by UV-Vis spectrophotometric analysis relative to control; format: functional
[2] = system: SH-SY5Y; test: Neuroprotection against H2O2-induced oxidative stress in human SH-SY5Y cells assessed as reduction in ROS generation at 10 uM preincubated for 3 hrs followed by DCFDA addition for 45 mins and subsequent co-treatment with compound and H2O2 for 24 hrs by fluorescence assay relative to control; format: functional
[3] = target: Sigma non-opioid intracellular receptor 1 (Cavia porcellus, UniProt Q60492); parameters: species or system Hartley
Description: Displacement of [3H]DTG from S1R in P2 fraction of Hartley guinea pig whole brain after 90 mins by liquid scintillation counting method

[4] = in vitro; conditions: human
Description: Cytotoxicity against human SH-SY5Y cells assessed as cell viability at 10 uM after 24 hrs by MTS assay relative to control

[5] = in vitro; conditions: human; remark: listed apart in the source
[6] = in vitro; conditions: human; remark: listed apart in the source
Description: Cytotoxicity against human SH-SY5Y cells assessed as cell viability at 50 uM after 24 hrs by MTS assay relative to control

[7] = in vitro; conditions: human; remark: listed apart in the source
Description: Cytotoxicity against human SH-SY5Y cells assessed as cell viability at 10 uM after 48 hrs by MTS assay relative to control

[8] = in vitro; conditions: human; remark: listed apart in the source
[9] = in vitro; conditions: human; remark: listed apart in the source
Description: Cytotoxicity against human SH-SY5Y cells assessed as cell viability at 50 uM after 48 hrs by MTS assay relative to control

[10] = target: T1, Sigma intracellular receptor 2 (Rattus norvegicus, UniProt Q5U3Y7); test: Displacement of [3H]-DTG from S2R in rat liver membranes after 120 mins by scintillation counting assay; format: cell membranes, Membrane
T1 sequence (Q5U3Y7 whole entry): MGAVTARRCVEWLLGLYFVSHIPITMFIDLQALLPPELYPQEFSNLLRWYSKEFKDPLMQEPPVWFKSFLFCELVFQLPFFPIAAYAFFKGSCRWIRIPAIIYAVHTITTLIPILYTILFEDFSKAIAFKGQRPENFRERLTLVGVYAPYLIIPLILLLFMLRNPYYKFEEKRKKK

[11] = Selectivity ratio of Ki for S2R in rat liver membranes to Ki for S1R in guinea pig brain cortex membranes; format: cell membranes
[12] = target: Acetylcholinesterase (Electrophorus electricus, UniProt O42275); test: Inhibition of electric eel AChE using acetylthiocholine iodide as substrate preincubated for 5 mins followed by substrate addition and measured after 2 mins by Ellman's method
[13] = Displacement of [3H]-ifenprodil from GluN1a/GluN2B (unknown origin) expressed in mouse L(tk-) cell membranes after 120 mins by scintillation counting analysis; parameters: species or system Homo sapiens
[14] = Antioxidant activity assessed as DPPH free radical scavenging after 20 mins by UV-Vis spectrophotometric analysis; format: functional
[15] = system: SH-SY5Y; test: Cytotoxicity against human SH-SY5Y cells assessed as reduction in cell viability after 24 hrs by MTS assay; format: cell-based; conditions: for IC50: Homo sapiens, SH-SY5Y; for Activity: human, sh-sy5y
[16] = system: SH-SY5Y; test: Cytotoxicity against human SH-SY5Y cells assessed as reduction in cell viability after 48 hrs by MTS assay; format: cell-based; conditions: for IC50: Homo sapiens, SH-SY5Y; for Activity: human, sh-sy5y
[17] = Neurotrophic activity in Sprague-Dawley rat embryo DRG neuron assessed as increase in neurite length at 2.5 uM after 24 hrs relative to control; format: functional
[18] = Neurotoxicity in Sprague-Dawley rat embryo DRG neuron at 2.5 to 5 uM after 24 to 48 hrs; format: toxicity
[19] = Neurotoxicity in Sprague-Dawley rat embryo DRG neuron at 10 uM after 24 hrs; format: toxicity
[20] = Neurotoxicity in Sprague-Dawley rat embryo DRG neuron at 10 uM after 48 hrs; format: toxicity
[21] = Neurotrophic activity in Sprague-Dawley rat embryo DRG neuron assessed as increase in neurite length at 2.5 to 5 uM after 24 to 48 hrs relative to control; format: functional

Acetylcholinesterase, sequence (O42275 whole entry): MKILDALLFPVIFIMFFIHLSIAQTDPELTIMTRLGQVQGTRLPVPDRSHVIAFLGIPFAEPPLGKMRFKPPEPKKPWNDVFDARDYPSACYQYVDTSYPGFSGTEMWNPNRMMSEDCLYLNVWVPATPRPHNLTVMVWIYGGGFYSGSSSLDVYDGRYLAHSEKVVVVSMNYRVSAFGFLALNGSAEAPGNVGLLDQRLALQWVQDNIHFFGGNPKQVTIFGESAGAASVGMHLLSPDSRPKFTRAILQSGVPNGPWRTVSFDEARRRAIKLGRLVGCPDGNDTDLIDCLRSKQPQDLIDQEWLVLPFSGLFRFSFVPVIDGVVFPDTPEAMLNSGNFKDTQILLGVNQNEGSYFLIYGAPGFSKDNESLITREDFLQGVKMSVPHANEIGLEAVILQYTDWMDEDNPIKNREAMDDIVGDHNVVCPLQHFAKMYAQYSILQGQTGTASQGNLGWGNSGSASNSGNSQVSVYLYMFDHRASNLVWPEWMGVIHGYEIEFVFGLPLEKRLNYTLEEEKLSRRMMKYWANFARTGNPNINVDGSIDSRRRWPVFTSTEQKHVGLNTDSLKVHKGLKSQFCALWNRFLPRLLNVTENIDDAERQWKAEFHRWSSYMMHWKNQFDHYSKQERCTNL
Sigma non-opioid intracellular receptor 1, sequence (Q60492 whole entry): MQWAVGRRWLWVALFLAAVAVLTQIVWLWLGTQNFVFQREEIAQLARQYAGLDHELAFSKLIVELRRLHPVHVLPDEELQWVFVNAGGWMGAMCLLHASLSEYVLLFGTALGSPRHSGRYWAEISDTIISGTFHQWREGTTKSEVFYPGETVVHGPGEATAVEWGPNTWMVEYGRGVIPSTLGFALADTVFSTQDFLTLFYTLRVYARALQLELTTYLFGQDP

In the case of `COc1cc2c(cc1OC)C(=O)C(CC1CCN(Cc3ccccc3)CC1)C2` (centres undefined) [DONEPEZIL], the Activity [1] is reported as 4.4%, the Activity [2] is reported as “inactive” and the Ki [3] is reported as 0.0146 µM. For the same compound, the viability at 24 h, 10 µM ([4]; sh-sy5y) was 100%, the viability at 24 h, 25 µM ([5]; sh-sy5y) was 99.3% and the viability at 24 h, 50 µM ([6]; sh-sy5y) was 94.7%. The viability at 48 h, 10 µM ([7]; sh-sy5y) was 94.3%, the viability at 48 h, 25 µM ([8]; sh-sy5y) was 80.4% and the viability at 48 h, 50 µM ([9]; sh-sy5y) was 64.4%.

Work on `Cl.O=C(CN1CCC(Cc2ccccc2)CC1)c1ccc2ccccc2c1` yielded a Ki [10] of 0.802 µM, a Ratio Ki [11] of 30 and an IC50 [12] of 9.13 µM. For the same compound, the Ki [13] was 0.139 µM, the IC50 [14] was 86.8 µM and the Activity [1] was 65.7%. The IC50 [15] was 52 µM, the Activity [15] was “Dose-dependent effect” and the IC50 [16] was 57 µM. The Activity [16] was “Dose-dependent effect”, the Activity [2] was “<=43%” and the Activity [17] was 15%. The Activity [18] was “Non-Toxic”, the Activity [19] was “Toxic” and the Activity [20] was “Non-Toxic”. The viability at 24 h, 10 µM ([4]; SH-SY5Y cells) was 107%, the viability at 24 h, 25 µM ([5]; SH-SY5Y cells) was 104% and the viability at 24 h, 50 µM ([6]; SH-SY5Y cells) was 81.3%. The viability at 48 h, 10 µM ([7]; SH-SY5Y cells) was 89.5%, the viability at 48 h, 25 µM ([8]; SH-SY5Y cells) was 77.6% and the viability at 48 h, 50 µM ([9]; SH-SY5Y cells) was 48.4%.

In the case of `COc1cc(/C=C/C(=O)CC(=O)/C=C/c2ccc(O)c(OC)c2)ccc1O` [CURCUMIN], the IC50 [14] is reported as 13.5 µM, the Activity [1] is reported as 71.3% and the Activity [2] is reported as 0%. The viability at 24 h, 10 µM ([4]; SH-SY5Y cells) was 100%, the viability at 24 h, 25 µM ([5]; SH-SY5Y cells) was 76.5% and the viability at 24 h, 50 µM ([6]; SH-SY5Y cells) was 71.5%. For the same compound, the viability at 48 h, 10 µM ([7]; SH-SY5Y cells) was 100%, the viability at 48 h, 25 µM ([8]; SH-SY5Y cells) was 58.7% and the viability at 48 h, 50 µM ([9]; SH-SY5Y cells) was 59%.

`Cl.O=C(CCN1CCCCC1)c1ccc(-c2ccccc2)cc1` gave a Ki [10] of 0.462 µM, a Ratio Ki [11] of 30.8 and an IC50 [12] of 13.1 µM. It also gave a Ki [13] greater than 1 µM, an Activity [1] of 15.5% and an IC50 [15] of 37 µM. For the same compound, the Activity [15] was “Dose-dependent effect”, the IC50 [16] was 22 µM and the Activity [16] was “Dose-dependent effect”. For the same compound, the Activity [2] was 18%, the Activity [21] was 20% and the Activity [18] was “Non-Toxic”. For the same compound, the Activity [19] was “Toxic”, the Activity [20] was “Non-Toxic” and the viability at 24 h, 10 µM ([4]; SH-SY5Y cells) was 104%. The viability at 24 h, 25 µM ([5]; SH-SY5Y cells) was 95.4%, the viability at 24 h, 50 µM ([6]; SH-SY5Y cells) was 64% and the viability at 48 h, 10 µM ([7]; SH-SY5Y cells) was 95.9%. The viability at 48 h, 25 µM ([8]; SH-SY5Y cells) was 49.3% and the viability at 48 h, 50 µM ([9]; SH-SY5Y cells) was 44.7%.
